{"source": "PubChem BioAssay AID1918998", "about": "(Molecular Pharmacology Branch, DTP, NCI, 2023)", "test_system": "521955-158-R2-J5-PDC complex spheroid growth", "assay": "Anticancer human tumor 521955-158-R2-J5-PDC patient-derived pancreatic carcinoma cell line growth inhibition [AhR]", "details": "for viability, T/C: stronger effect = lower value", "how_it_was_run": "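Agents were dosed in half-log steps down from roughly clinical Cmax, or from 10 microM where Cmax was unknown, alone and with AhR antagonists. Read-out: percent test/control growth of tumor spheroids containing HUVEC and MSC stromal cells.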", "key": {"[1]": {"details": "curve of first compound, second compound 0.1 µM"}, "[2]": {"details": "curve of first compound, second compound 0.316 µM"}, "[3]": {"details": "curve of first compound, second compound 1 µM"}, "[4]": {"details": "curve of first compound, second compound 3.16 µM"}, "[5]": {"details": "curve of first compound, second compound 10 µM"}, "[6]": {"details": "second compound 0.1 µM, first compound 0.0316 µM"}, "[7]": {"details": "second compound 0.1 µM, first compound 0.1 µM"}, "[8]": {"details": "second compound 0.1 µM, first compound 0.316 µM"}, "[9]": {"details": "second compound 0.1 µM, first compound 1 µM"}, "[10]": {"details": "second compound 0.316 µM, first compound 0.0316 µM"}, "[11]": {"details": "second compound 0.316 µM, first compound 0.1 µM"}, "[12]": {"details": "second compound 0.316 µM, first compound 0.316 µM"}, "[13]": {"details": "second compound 0.316 µM, first compound 1 µM"}, "[14]": {"details": "second compound 1 µM, first compound 0.0316 µM"}, "[15]": {"details": "second compound 1 µM, first compound 0.1 µM"}, "[16]": {"details": "second compound 1 µM, first compound 0.316 µM"}, "[17]": {"details": "second compound 1 µM, first compound 1 µM"}, "[18]": {"details": "second compound 3.16 µM, first compound 0.0316 µM"}, "[19]": {"details": "second compound 3.16 µM, first compound 0.1 µM"}, "[20]": {"details": "second compound 3.16 µM, first compound 0.316 µM"}, "[21]": {"details": "second compound 3.16 µM, first compound 1 µM"}, "[22]": {"details": "second compound 10 µM, first compound 0.0316 µM"}, "[23]": {"details": "second compound 10 µM, first compound 0.1 µM"}, "[24]": {"details": "second compound 10 µM, first compound 0.316 µM"}, "[25]": {"details": "second compound 10 µM, first compound 1 µM"}}, "note": "Where “and” joins values, the source holds several entries; their conditions need not be identical. Equal entries are not always repeated.", "data": [{"compound": "Nc1ncn(C2CC(O)C(CO)S2)c(=O)n1", "note": "(stereo unspecified);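 for viability, T/C: spheroids mix tumor cells with HUVEC endothelium and human MSC stroma; luminescence taken as viability surrogate after a week of drug exposure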", "values": [{"measurement": "viability, T/C", "setting": "compound 0.000949 µM", "value": "104% and 88.3% and 99.6%"}, {"measurement": "viability, T/C", "setting": "compound 0.003 µM", "value": "100% and 82.5% and 108%"}, {"measurement": "viability, T/C", "setting": "compound 0.00949 µM", "value": "97.7% and 84.6% and 93%"}, {"measurement": "viability, T/C", "setting": "compound 0.03 µM", "value": "93.5% and 74.3% and 75.1%"}, {"measurement": "viability, T/C", "setting": "compound 0.0949 µM", "value": "98.7% and 75.1% and 73.7%"}, {"measurement": "viability, T/C", "setting": "compound 0.3 µM", "value": "91.9% and 72.8% and 71.8%"}, {"measurement": "IC50", "setting": "curve of compound", "value": "> 300", "unit": "nM"}]}, {"compound": "CCc1c2c(nc3ccc(O)cc13)-c1cc3c(c(=O)n1C2)COC(=O)[C@]3(O)CC", "values": [{"measurement": "viability, T/C", "setting": "compound 0.000949 µM", "value": "73.4% and 63.5% and 74.2%"}, {"measurement": "viability, T/C", "setting": "compound 0.003 µM", "value": "71% and 71.7% and 44.2%"}, {"measurement": "viability, T/C", "setting": "compound 0.00949 µM", "value": "38.3% and 39.2% and 18.2%"}, {"measurement": "viability, T/C", "setting": "compound 0.03 µM", "value": "22% and 28.9% and 12%"}, {"measurement": "viability, T/C", "setting": "compound 0.0949 µM", "value": "16.9% and 22.7% and 10%"}, {"measurement": "viability, T/C", "setting": "compound 0.3 µM", "value": "14.9% and 13.4% and 8.11%"}, {"measurement": "IC50", "setting": "curve of compound", "value": "6.31 nM and 6.13 nM and 2.39 nM"}]}, {"compound": "COc1cc(Nc2ncc3c(n2)-c2ccc(Cl)cc2C(c2c(F)cccc2OC)=NC3)ccc1C(=O)O", "values": [{"measurement": "viability, T/C", "setting": "compound 0.0316 µM", "value": "77.4% and 67.8% and 86.3%"}, {"measurement": "viability, T/C", "setting": "compound 0.1 µM", "value": "85.5% and 81.5% and 77.1%"}, {"measurement": "viability, T/C", "setting": "compound 0.316 µM", "value": "58.4% and 76.3% and 50%"}, {"measurement": "viability, T/C", "setting": "compound 1 µM", "value": "57.4% and 60% and 62%"}, {"measurement": "viability, T/C", "setting": "compound 3.16 µM", "value": "82.1% and 66.4% and 67%"}, {"measurement": "viability, T/C", "setting": "compound 10 µM", "value": "66.9% and 47.4% and 49.2%"}, {"measurement": "IC50", "setting": "curve of compound", "value": "> 10000 nM and 8540 nM"}]}, {"compound": "CC1COCCN1c1cc(-c2ccnn2C)c2ccnc(-c3ccn[nH]3)c2n1", "note": "(stereo unspecified) + Cc1cncc(-c2nc(NCCc3c[nH]c4ccccc34)c3ncn(C(C)C)c3n2)c1", "values": [{"measurement": "IC50", "setting": "[1]", "value": 116, "unit": "nM"}, {"measurement": "IC50", "setting": "[2]", "value": 136, "unit": "nM"}, {"measurement": "IC50", "setting": "[3]", "value": 87.4, "unit": "nM"}, {"measurement": "IC50", "setting": "[4]", "value": 132, "unit": "nM"}, {"measurement": "IC50", "setting": "[5]", "value": 88.8, "unit": "nM"}, {"measurement": "viability, T/C", "setting": "second compound 0.1 µM, first compound 0.00316 µM", "value": 112, "unit": "%"}, {"measurement": "viability, T/C", "setting": "second compound 0.1 µM, first compound 0.01 µM", "value": 109, "unit": "%"}, {"measurement": "viability, T/C", "setting": "[6]", "value": 106, "unit": "%"}, {"measurement": "viability, T/C", "setting": "[7]", "value": 55.6, "unit": "%"}, {"measurement": "viability, T/C", "setting": "[8]", "value": 12.8, "unit": "%"}, {"measurement": "viability, T/C", "setting": "[9]", "value": 16.2, "unit": "%"}, {"measurement": "viability, T/C", "setting": "second compound 0.316 µM, first compound 0.00316 µM", "value": 113, "unit": "%"}, {"measurement": "viability, T/C", "setting": "second compound 0.316 µM, first compound 0.01 µM", "value": 130, "unit": "%"}, {"measurement": "viability, T/C", "setting": "[10]", "value": 117, "unit": "%"}, {"measurement": "viability, T/C", "setting": "[11]", "value": 63.3, "unit": "%"}, {"measurement": "viability, T/C", "setting": "[12]", "value": 12.4, "unit": "%"}, {"measurement": "viability, T/C", "setting": "[13]", "value": 12.7, "unit": "%"}, {"measurement": "viability, T/C", "setting": "second compound 1 µM, first compound 0.00316 µM", "value": 94.7, "unit": "%"}, {"measurement": "viability, T/C", "setting": "second compound 1 µM, first compound 0.01 µM", "value": 123, "unit": "%"}, {"measurement": "viability, T/C", "setting": "[14]", "value": 121, "unit": "%"}, {"measurement": "viability, T/C", "setting": "[15]", "value": 41.6, "unit": "%"}, {"measurement": "viability, T/C", "setting": "[16]", "value": 15.7, "unit": "%"}, {"measurement": "viability, T/C", "setting": "[17]", "value": 13.1, "unit": "%"}, {"measurement": "viability, T/C", "setting": "second compound 3.16 µM, first compound 0.00316 µM", "value": 176, "unit": "%"}, {"measurement": "viability, T/C", "setting": "second compound 3.16 µM, first compound 0.01 µM", "value": 167, "unit": "%"}, {"measurement": "viability, T/C", "setting": "[18]", "value": 145, "unit": "%"}, {"measurement": "viability, T/C", "setting": "[19]", "value": 61.1, "unit": "%"}, {"measurement": "viability, T/C", "setting": "[20]", "value": 13.6, "unit": "%"}, {"measurement": "viability, T/C", "setting": "[21]", "value": 19.1, "unit": "%"}, {"measurement": "viability, T/C", "setting": "second compound 10 µM, first compound 0.00316 µM", "value": 127, "unit": "%"}, {"measurement": "viability, T/C", "setting": "second compound 10 µM, first compound 0.01 µM", "value": 134, "unit": "%"}, {"measurement": "viability, T/C", "setting": "[22]", "value": 105, "unit": "%"}, {"measurement": "viability, T/C", "setting": "[23]", "value": 45.2, "unit": "%"}, {"measurement": "viability, T/C", "setting": "[24]", "value": 8.85, "unit": "%"}, {"measurement": "viability, T/C", "setting": "[25]", "value": 12.9, "unit": "%"}]}, {"compound": "CC(C)c1c(-c2ccccc2)nc2c(C#N)c[nH]n2c1=O", "note": "+ Cc1cncc(-c2nc(NCCc3c[nH]c4ccccc34)c3ncn(C(C)C)c3n2)c1", "values": [{"measurement": "IC50", "setting": "[1]", "value": "> 10000", "unit": "nM"}, {"measurement": "IC50", "setting": "[2]", "value": "> 10000", "unit": "nM"}, {"measurement": "IC50", "setting": "[3]", "value": "> 10000", "unit": "nM"}, {"measurement": "IC50", "setting": "[4]", "value": "> 10000", "unit": "nM"}, {"measurement": "IC50", "setting": "[5]", "value": "> 10000", "unit": "nM"}, {"measurement": "viability, T/C", "setting": "[6]", "value": 96.9, "unit": "%"}, {"measurement": "viability, T/C", "setting": "[7]", "value": 112, "unit": "%"}, {"measurement": "viability, T/C", "setting": "[8]", "value": 114, "unit": "%"}, {"measurement": "viability, T/C", "setting": "[9]", "value": 101, "unit": "%"}, {"measurement": "viability, T/C", "setting": "second compound 0.1 µM, first compound 3.16 µM", "value": 98.7, "unit": "%"}, {"measurement": "viability, T/C", "setting": "second compound 0.1 µM, first compound 10 µM", "value": 94.6, "unit": "%"}, {"measurement": "viability, T/C", "setting": "[10]", "value": 101, "unit": "%"}, {"measurement": "viability, T/C", "setting": "[11]", "value": 137, "unit": "%"}, {"measurement": "viability, T/C", "setting": "[12]", "value": 98.9, "unit": "%"}, {"measurement": "viability, T/C", "setting": "[13]", "value": 106, "unit": "%"}, {"measurement": "viability, T/C", "setting": "second compound 0.316 µM, first compound 3.16 µM", "value": 95.7, "unit": "%"}, {"measurement": "viability, T/C", "setting": "second compound 0.316 µM, first compound 10 µM", "value": 94.6, "unit": "%"}, {"measurement": "viability, T/C", "setting": "[14]", "value": 133, "unit": "%"}, {"measurement": "viability, T/C", "setting": "[15]", "value": 142, "unit": "%"}, {"measurement": "viability, T/C", "setting": "[16]", "value": 127, "unit": "%"}, {"measurement": "viability, T/C", "setting": "[17]", "value": 112, "unit": "%"}, {"measurement": "viability, T/C", "setting": "second compound 1 µM, first compound 3.16 µM", "value": 106, "unit": "%"}, {"measurement": "viability, T/C", "setting": "second compound 1 µM, first compound 10 µM", "value": 105, "unit": "%"}, {"measurement": "viability, T/C", "setting": "[18]", "value": 169, "unit": "%"}, {"measurement": "viability, T/C", "setting": "[19]", "value": 151, "unit": "%"}, {"measurement": "viability, T/C", "setting": "[20]", "value": 146, "unit": "%"}, {"measurement": "viability, T/C", "setting": "[21]", "value": 134, "unit": "%"}, {"measurement": "viability, T/C", "setting": "second compound 3.16 µM, first compound 3.16 µM", "value": 131, "unit": "%"}, {"measurement": "viability, T/C", "setting": "second compound 3.16 µM, first compound 10 µM", "value": 136, "unit": "%"}, {"measurement": "viability, T/C", "setting": "[22]", "value": 134, "unit": "%"}, {"measurement": "viability, T/C", "setting": "[23]", "value": 147, "unit": "%"}, {"measurement": "viability, T/C", "setting": "[24]", "value": 153, "unit": "%"}, {"measurement": "viability, T/C", "setting": "[25]", "value": 143, "unit": "%"}, {"measurement": "viability, T/C", "setting": "second compound 10 µM, first compound 3.16 µM", "value": 118, "unit": "%"}, {"measurement": "viability, T/C", "setting": "second compound 10 µM, first compound 10 µM", "value": 124, "unit": "%"}]}]}
